Active and inactive are the calls of the source.
Key:
[1] = inhibitors of intracellular T. cruzi replication, confirmation, NIH3T3 host cells, beta-gal luminescence (AID 2044); type: functional, cell-based;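 note: intracellular parasites grown in NIH/3T3 mouse fibroblasts as host cells; luminescent beta-galactosidase reporter signal from transgenic T. cruzi replicating inside host cells; inhibitors lower the luminescence signal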
[2] = biological target: Glucose-6-phosphate 1-dehydrogenase (Homo sapiens, UniProt P11413); assay: human G6PD enzyme inhibitors, dose response, selectivity assay for P. falciparum G6PD inhibitor project, biochemical, fluorescence (AID 504792); type: functional
Glucose-6-phosphate 1-dehydrogenase, sequence (P11413 whole entry): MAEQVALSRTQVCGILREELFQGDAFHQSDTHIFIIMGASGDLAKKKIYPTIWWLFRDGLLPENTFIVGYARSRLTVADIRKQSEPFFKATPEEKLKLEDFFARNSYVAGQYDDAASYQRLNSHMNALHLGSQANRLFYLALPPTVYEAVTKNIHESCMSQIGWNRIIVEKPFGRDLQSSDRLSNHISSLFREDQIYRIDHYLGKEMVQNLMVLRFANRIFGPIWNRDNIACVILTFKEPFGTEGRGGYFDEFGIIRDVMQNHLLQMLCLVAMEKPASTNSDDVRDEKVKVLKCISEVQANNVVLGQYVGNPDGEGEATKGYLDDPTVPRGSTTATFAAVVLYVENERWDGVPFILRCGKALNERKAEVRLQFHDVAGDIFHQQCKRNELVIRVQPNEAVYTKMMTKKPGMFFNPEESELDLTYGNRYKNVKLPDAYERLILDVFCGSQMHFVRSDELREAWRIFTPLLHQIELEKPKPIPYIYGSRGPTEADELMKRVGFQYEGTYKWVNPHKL

[3] = cytotoxicity toward NIH3T3 fibroblasts, dose response, counter-screen, cell-based, ATP luminescence, mouse fibroblasts (AID 2010); type: functional;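 note: cells exposed to compound for about 90 hours before reading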
[4] = (§1) Counterscreen for antagonists of the orexin 1 receptor (OX1R; HCRTR1): Fluorescence-based cell-based high throughput dose response assay to identify antagonists of the parental CHO cell line. [Related pubchem assays (depositor defined):AID434989, AID435008, AID463079, AID485270, AID492963, AID492964, AID492965, AID493232, AID504699, AID504701]; type: functional
CHO-K1 = assay: as §1, with “Homogeneous time resolved fluorescence (HTRF)-based” for “Fluorescence-based”, “cell-based” for “cell-based high throughput”, “CHO-K1” for “CHO”; type: functional; conditions: Cricetulus griseus;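 note: potency for inhibition of ATP-stimulated IP1 production as antagonists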
[5] = biological target: T1, Orexin/Hypocretin receptor type 1 (Homo sapiens, UniProt O43613); assay: Homogeneous Time Resolved Fluorescence (HTRF)-based cell-based high throughput dose response assay for antagonists of the orexin 1 receptor (OX1R; HCRTR1). [Related pubchem assays (depositor defined):AID434989, AID435008, AID463079, AID485270, AID492963, AID492964, AID492965, AID493232, AID504717, AID504718]; type: functional
T1 sequence (O43613 whole entry): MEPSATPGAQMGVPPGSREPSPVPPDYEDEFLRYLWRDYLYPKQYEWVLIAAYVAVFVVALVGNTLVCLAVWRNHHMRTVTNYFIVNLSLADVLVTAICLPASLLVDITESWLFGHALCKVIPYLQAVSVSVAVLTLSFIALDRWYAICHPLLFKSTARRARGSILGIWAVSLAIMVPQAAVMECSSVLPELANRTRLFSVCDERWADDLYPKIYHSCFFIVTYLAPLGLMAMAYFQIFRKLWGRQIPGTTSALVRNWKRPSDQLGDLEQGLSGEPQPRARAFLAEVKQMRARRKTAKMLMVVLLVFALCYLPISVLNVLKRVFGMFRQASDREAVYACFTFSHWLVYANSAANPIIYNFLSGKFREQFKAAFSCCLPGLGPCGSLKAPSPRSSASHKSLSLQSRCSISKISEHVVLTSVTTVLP

[6] = biological target: T1, Orexin/Hypocretin receptor type 1; assay: Fluorescence-based cell-based high throughput dose response assay for antagonists of the orexin 1 receptor (OX1R; HCRTR1). [Related pubchem assays (depositor defined):AID434989, AID435008, AID463079, AID485270, AID492963, AID492964, AID492965, AID493232, AID504717, AID504718]; type: functional
[7] = biological target: G-protein coupled receptor 55 (Homo sapiens, UniProt Q9Y2T6); assay: GPR55 agonists via beta-arrestin recruitment, primary screen, imaging, U2OS cells, beta-arrestin-GFP redistribution (AID 1961); type: functional
G-protein coupled receptor 55, sequence (Q9Y2T6 whole entry): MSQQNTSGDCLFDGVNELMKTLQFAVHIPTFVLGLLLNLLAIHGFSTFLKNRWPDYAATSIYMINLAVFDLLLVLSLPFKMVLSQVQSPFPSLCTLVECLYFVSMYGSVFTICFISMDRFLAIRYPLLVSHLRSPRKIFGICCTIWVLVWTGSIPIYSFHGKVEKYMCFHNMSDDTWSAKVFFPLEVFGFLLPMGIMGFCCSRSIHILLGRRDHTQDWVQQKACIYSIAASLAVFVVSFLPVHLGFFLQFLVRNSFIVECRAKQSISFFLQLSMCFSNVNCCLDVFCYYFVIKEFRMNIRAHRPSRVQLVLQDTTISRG

[8] = biological target: FAD-linked sulfhydryl oxidase ALR (Homo sapiens, UniProt P55789); assay: inhibitors of human ALR sulfhydryl oxidase, dose response, biochemical, H2O2 detection, luminescence, cherry-pick (AID 493248)
FAD-linked sulfhydryl oxidase ALR, sequence (P55789 whole entry): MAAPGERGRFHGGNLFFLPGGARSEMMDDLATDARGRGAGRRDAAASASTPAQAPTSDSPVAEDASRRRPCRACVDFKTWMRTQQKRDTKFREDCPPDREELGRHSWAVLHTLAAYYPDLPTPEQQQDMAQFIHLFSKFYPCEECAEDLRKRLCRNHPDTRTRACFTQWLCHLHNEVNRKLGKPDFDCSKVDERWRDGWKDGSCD

Large T antigen = Large T antigen (Simian virus 40, UniProt P03070); type: functional, Betapolyomavirus macacae;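 note: Confirmatory-stage PubChem screen for compounds that inhibit SV40 T antigen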
Large T antigen, sequence (P03070 whole entry): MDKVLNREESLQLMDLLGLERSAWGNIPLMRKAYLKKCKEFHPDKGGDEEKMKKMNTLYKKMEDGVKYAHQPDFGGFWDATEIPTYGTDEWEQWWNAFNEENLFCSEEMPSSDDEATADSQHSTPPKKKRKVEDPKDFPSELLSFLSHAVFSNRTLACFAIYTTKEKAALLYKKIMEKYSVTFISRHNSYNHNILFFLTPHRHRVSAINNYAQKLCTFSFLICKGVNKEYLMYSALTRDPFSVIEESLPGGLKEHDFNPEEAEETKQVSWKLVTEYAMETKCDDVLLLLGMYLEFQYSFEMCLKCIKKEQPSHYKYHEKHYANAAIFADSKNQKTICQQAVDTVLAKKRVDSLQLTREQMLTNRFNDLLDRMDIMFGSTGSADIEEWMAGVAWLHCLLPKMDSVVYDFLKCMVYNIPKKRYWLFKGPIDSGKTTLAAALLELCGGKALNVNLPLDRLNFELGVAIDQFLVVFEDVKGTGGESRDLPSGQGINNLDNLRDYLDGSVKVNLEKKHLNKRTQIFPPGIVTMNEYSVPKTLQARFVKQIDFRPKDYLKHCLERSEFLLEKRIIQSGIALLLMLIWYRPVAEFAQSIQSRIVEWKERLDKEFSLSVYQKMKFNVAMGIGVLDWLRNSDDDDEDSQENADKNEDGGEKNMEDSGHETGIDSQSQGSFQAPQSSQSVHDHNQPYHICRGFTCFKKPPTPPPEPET

[9] = growth induction of Burl-1 ts yeast mutant, dose response, counter-screen for SUMOylation pathway inhibitor project, whole organism, S. cerevisiae, luminescence (AID 463199); type: functional
Protein Rev = Protein Rev (Human immunodeficiency virus type 1 group M subtype B (isolate HXB2)(HIV-1), UniProt P04618); assay: inhibitors of Rev binding to RRE RNA, dose response, biochemical, fluorescence polarization, HIV-1 (AID 434976); parameters: species or system Human immunodeficiency virus 1
Protein Rev, sequence (P04618 whole entry): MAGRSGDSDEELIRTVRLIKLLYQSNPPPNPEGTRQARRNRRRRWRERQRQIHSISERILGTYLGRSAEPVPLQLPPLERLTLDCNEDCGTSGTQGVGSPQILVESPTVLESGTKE

[10] = biological target: Female germline-specific tumor suppressor gld-1 (Caenorhabditis elegans, UniProt Q17339); assay: inhibitors of GLD-1 binding to TGE RNA, dose response, biochemical, fluorescence polarization, C. elegans (AID 2802);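 note: fluorescence polarization of labeled TGE RNA bound by purified gld-1 protein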
Female germline-specific tumor suppressor gld-1, sequence (Q17339 whole entry): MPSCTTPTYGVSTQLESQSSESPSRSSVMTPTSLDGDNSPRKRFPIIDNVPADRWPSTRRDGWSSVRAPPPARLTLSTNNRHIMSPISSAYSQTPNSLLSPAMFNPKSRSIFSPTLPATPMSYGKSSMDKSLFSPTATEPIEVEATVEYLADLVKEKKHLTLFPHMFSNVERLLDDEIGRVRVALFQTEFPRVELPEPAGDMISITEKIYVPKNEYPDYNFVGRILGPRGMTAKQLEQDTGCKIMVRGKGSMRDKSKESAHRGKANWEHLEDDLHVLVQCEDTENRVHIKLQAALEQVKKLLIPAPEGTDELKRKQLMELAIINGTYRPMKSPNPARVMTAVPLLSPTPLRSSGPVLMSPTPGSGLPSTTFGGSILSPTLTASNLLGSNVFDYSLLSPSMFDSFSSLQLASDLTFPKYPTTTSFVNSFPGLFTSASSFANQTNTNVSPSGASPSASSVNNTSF

[11] = biological target: T2, Polyadenylate-binding protein 1 (Homo sapiens, UniProt P11940); assay: PABP1 MLLE–PAM2 binding inhibitor potency, dose response, biochemical, fluorescence polarization, FITC-PAM2 peptide (AID 602259); type: functional; conditions: read-out: IC50_Mean
T2 sequence (P11940 whole entry): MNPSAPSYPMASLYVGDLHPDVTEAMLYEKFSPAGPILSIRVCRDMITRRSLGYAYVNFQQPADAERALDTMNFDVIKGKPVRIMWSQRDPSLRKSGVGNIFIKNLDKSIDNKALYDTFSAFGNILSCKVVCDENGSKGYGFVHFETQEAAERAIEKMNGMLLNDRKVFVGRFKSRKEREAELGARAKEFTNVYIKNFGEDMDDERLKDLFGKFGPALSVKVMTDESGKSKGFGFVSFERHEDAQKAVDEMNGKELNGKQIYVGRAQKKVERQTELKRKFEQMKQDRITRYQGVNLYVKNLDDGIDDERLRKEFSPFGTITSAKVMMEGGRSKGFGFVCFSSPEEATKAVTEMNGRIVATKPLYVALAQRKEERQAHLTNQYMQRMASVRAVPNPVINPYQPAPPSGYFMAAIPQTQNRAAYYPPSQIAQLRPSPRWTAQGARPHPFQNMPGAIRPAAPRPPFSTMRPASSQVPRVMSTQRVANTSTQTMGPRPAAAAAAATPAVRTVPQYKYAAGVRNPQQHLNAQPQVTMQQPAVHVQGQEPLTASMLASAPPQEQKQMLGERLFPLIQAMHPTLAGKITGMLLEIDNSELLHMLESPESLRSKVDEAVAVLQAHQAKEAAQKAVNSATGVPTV

[12] = biological target: T2, Polyadenylate-binding protein 1; assay: PABP1 MLLE–PAM2 interaction inhibitors, dose response, miRNA deadenylation inhibitor project, biochemical, fluorescence polarization, Cy5-PAM2 peptide, secondary (AID 602260); type: functional; conditions: read-out: IC50_Mean
[13] = biological target: T3, Microphthalmia-associated transcription factor (Homo sapiens, UniProt O75030); assay: TRPM1 promoter luciferase signal decrease, dose response, MITF inhibitor project, cell-based, SK-MEL-5, cherry-picked, set 3 (AID 493073); type: functional
T3 sequence (O75030 whole entry): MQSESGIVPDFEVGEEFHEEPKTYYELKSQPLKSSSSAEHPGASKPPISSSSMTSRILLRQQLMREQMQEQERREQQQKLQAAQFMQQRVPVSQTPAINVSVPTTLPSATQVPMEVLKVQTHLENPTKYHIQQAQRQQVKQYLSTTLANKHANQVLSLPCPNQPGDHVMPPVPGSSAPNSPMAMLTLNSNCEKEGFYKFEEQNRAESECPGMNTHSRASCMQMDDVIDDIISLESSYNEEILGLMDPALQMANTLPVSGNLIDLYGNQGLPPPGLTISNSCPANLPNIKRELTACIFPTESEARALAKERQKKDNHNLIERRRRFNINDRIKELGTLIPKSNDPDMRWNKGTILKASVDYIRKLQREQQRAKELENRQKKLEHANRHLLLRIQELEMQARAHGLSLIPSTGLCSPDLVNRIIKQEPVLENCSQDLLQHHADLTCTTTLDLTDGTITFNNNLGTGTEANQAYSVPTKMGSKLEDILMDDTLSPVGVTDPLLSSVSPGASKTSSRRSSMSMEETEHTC

[14] = biological target: Neurotensin receptor type 1 (Homo sapiens, UniProt P30989); type: functional;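 note: Image-based confirmatory dose-response assay measuring agonist activity at NTR1; NTR1-expressing U2OS osteosarcoma cells imaged for beta-arrestin GFP spot formation; agonist potency where compounds increase beta-arrestin recruitment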
Neurotensin receptor type 1, sequence (P30989 whole entry): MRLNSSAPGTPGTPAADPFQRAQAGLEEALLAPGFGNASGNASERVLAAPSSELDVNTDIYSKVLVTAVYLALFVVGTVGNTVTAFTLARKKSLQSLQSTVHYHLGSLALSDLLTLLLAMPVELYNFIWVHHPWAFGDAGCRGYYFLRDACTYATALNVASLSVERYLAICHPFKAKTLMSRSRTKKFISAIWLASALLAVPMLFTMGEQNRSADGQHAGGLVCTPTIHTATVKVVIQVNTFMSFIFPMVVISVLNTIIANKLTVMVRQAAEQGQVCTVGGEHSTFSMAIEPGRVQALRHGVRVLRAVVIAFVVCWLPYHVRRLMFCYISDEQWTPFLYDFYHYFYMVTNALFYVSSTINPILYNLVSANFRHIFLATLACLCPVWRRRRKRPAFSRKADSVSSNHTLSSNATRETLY

[15] = Luminescence-based cell-based high throughput dose response assay to identify activators of the DAF-12 from the parasite S. stercoralis (ssDAF-12).; type: functional
[16] = Fluorescence-based cell-based high throughput dose response assay for inhibitors of the interaction of nucleotide-binding oligomerization domain containing 2 (NOD2) and the receptor-interacting serine-threonine kinase 2 (RIPK2).; type: functional, Homo sapiens; conditions: Homo sapiens

For O=[N+]([O-])c1ccc(Sc2cccc3cccnc23)c2cccnc12, the EC50 [1] was 0.666 µM (active), the IC50 [2] was > 80 µM (inactive) and the EC50 [3] was > 30 µM (not active).
With Cn1c2ccc(F)cc2c2nc3ccccc3nc21 the IC50 [4] was > 49.7 µM (inactive), the IC50 (CHO-K1) was > 66.2 µM (inactive) and the IC50 [5] was 1.17 µM (active). The IC50 [6] was 6.95 µM (active).
For CCN(c1ccccc1)S(=O)(=O)c1ccc(C(=O)N(CCN(C)C)c2nc3c(F)cc(F)cc3s2)cc1, the EC50 [7] was > 32 µM (inactive).
In the case of COc1cc(/C=N/NC(=O)c2cccs2)ccc1O, the AC50 [8] is reported as 1.65 µM (active) and the IC50 (Large T antigen) is reported as 5.62 µM (active).
For COc1ccc(OC)c(-c2cc(C(=O)Nc3c(C)nn(Cc4ccccc4Cl)c3C)no2)c1, the AC50 [9] was 47.9 µM (active).
For COc1ccc(NC(=O)Cc2ccccc2)cn1, the IC50 (Protein Rev) was > 25.2 µM (not active) and the IC50 [10] was 15.1 µM (inactive).
In the case of CCOC(=O)c1cc2c(ccn2C)n1CC(=O)N(Cc1ccccc1)c1ccccc1, the IC50 (Protein Rev) is reported as > 75.4 µM (not active), the IC50 [11] is reported as > 66 µM (inactive) and the IC50 [12] is reported as > 66 µM (inactive). The IC50 [10] was > 6.62 µM (active).
For O=C(/C=C/c1cccc(Br)c1)c1ccc2c(c1)OCO2, the EC50 [7] was 4.03 µM (active).
In the case of Cc1cc(N2CCOCC2)ccc1/C=C\[N+](=O)[O-], the AC50 [13] is reported as 22.5 µM (active), the EC50 [14] is reported as 22.4 µM (inactive) and the IC50 [15] is reported as > 67.5 µM (inactive). The IC50 [16] was 4.34 µM (active).

Reference: ChEMBL document CHEMBL1201862, “PubChem BioAssay data set” (2004)
